# Measurements reported in US9771370B2, “Compounds for the inhibition of indoleamine-2,3-dioxygenase” (Merck Patent GmbH, priority 2014, dated 2017).
# Target: Recombinant human IDO (Homo sapiens, UniProt P14902)
# Experiment: Bridge-IT tryptophan fluorescence assay of human IDO-1 inhibition
# Format: biochemical
# Details: recombinant human IDO 7.5 nM, L-tryptophan
# Method: Measurement of human IDO-1 inhibition is performed in 384 well format using the Bridge-IT® tryptophan Fluorescence Assay (Mediomics, LLC, St. Louis, Mo., U.S.A.).
# The reaction is initiated by the addition of L-Tryptophan (Sigma) at a final concentration of 100 μM in assay buffer. After 90 minutes of incubation at 37° C., the reaction is stopped by transferring 1 μl of the reaction mixture to 9 μl of Bridge-IT assay solution A. After 30 min of incubation at 30° C., the fluorescence intensity was measured at λex=485 nm and λem=665 nm using Perkin Elmer Envision® Multilabel Reader.
# Measurement of human IDO-1 inhibition was performed in 384-well format using the BRIDGE-IT® tryptophan Fluorescence Assay (Mediomics, LLC, St. Louis, Mo., U.S.A.). […] After 30 minutes of pre-incubation at 25° C., the reaction was initiated by the addition of L-Tryptophan (Sigma) at a final concentration of 50 μM in assay buffer. After 60 minutes of incubation at 25° C., the reaction is stopped by transferring 1 μl of the reaction mixture to 9 μl of Bridge-IT assay solution A. After 30 min of incubation at 30° C., the fluorescence intensity was measured at λex=485 nm and λem=665 nm using Perkin Elmer ENVISION® Multilabel Reader.
# Chain of Recombinant human IDO (P14902 whole entry): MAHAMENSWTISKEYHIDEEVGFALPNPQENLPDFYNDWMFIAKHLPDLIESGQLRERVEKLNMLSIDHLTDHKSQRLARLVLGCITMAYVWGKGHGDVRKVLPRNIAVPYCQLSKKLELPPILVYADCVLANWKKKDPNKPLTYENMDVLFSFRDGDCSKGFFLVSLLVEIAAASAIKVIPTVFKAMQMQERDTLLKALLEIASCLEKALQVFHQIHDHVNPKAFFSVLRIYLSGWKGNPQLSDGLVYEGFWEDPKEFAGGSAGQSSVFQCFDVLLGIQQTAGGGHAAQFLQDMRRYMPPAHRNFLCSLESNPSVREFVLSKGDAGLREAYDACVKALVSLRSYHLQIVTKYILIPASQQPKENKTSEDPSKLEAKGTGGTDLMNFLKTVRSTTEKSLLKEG
row,SMILES,IC50
1,"OC1CCC(F)(CCC2c3cc(F)ncc3-c3cncn32)CC1 (single isomer, unassigned) [Compound 58a, 4-fluoro-4-[2-[10-fluoro-4,6,11-triazatricyclo[6.4.0.0^[2,6]]dodeca-1(8),2,4,9,11-pentaen-7-yl]ethyl]cyclohexan-1-ol]",> 1000 nM
2,"OC1(C2CCC(F)(CCC3c4ccccc4-c4cncn43)CC2)CC1 (single isomer, unassigned) [Compound 60d, 1-[4-fluoro-4-[2-[5H-imidazo[4,3-a]isoindol-5-yl]ethyl]cyclohexyl]cyclopropan-1-ol]",< 100 nM
3,"COc1ccc2c(n1)C(CC(N)C1CCC(F)(F)CC1)n1cncc1-2 (single isomer, unassigned) [Compound 120d, 1-(4,4-difluorocyclohexyl)-2-[10-methoxy-4,6,9-triazatricyclo[6.4.0.0^[2,6]]dodeca-1(8),2,4,9,11-pentaen-7-yl]ethan-1-amine]",> 1000 nM
4,"OCC1CCC(F)(CCC2c3c(Cl)cccc3-c3cncn32)CC1 (single isomer, unassigned) [Compound 105a, [4-[2-[6-chloro-5H-imidazo[4,3-a]isoindol-5-yl]ethyl]-4-fluorocyclohexyl]methanol]",> 1000 nM
5,"OC(CC1c2ncncc2-c2cncn21)C1CCCCC1 (single isomer, unassigned) [Compound 67c, 1-cyclohexyl-2-[4,6,9,11-tetraazatricyclo[6.4.0.0^[2,6]]dodeca-1(8),2,4,9,11-pentaen-7-yl]ethan-1-ol]",> 1000 nM
6,"COc1cc2c(cn1)-c1cncn1C2CCC1(F)CCCCC1 (single isomer, unassigned) [Compound 15b, 7-[2-(1-fluorocyclohexyl)ethyl]-10-methoxy-4,6,11-triazatricyclo[6.4.0.0^[2,6]]dodeca-1(8),2,4,9,11-pentaene]",> 1000 nM
7,"OC(CC1c2cc(F)ncc2-c2cncn21)C1CCCCC1 (single isomer, unassigned) [Compound 24c, 1-cyclohexyl-2-[10-fluoro-4,6,11-triazatricyclo[6.4.0.0^[2,6]]dodeca-1(8),2,4,9,11-pentaen-7-yl]ethan-1-ol]",< 100 nM
8,"OC1(C2CCC(F)(CCC3c4c(F)cccc4-c4cncn43)CC2)CC1 (centres unmarked) [Compound 85b, 1-[4-fluoro-4-(2-[6-fluoro-5H-imidazo[4,3-a]isoindol-5-yl]ethyl)cyclohexyl]cyclopropan-1-ol]",100 to 1000 nM
9,"OC1(C2CCC(F)(CCC3c4ccccc4-c4cncn43)CC2)CC1 (single isomer, unassigned) [Compound 60b, 1-[4-fluoro-4-[2-[5H-imidazo[4,3-a]isoindol-5-yl]ethyl]cyclohexyl]cyclopropan-1-ol]",> 1000 nM
10,"OC1CCC(F)(CCC2c3c(F)ccc(F)c3-c3cncn32)CC1 (single isomer, unassigned) [Compound 38c, 4-(2-(6,9-difluoro-5H-imidazo[5,1-a]isoindol-5-yl)ethyl)-4-fluorocyclohexanol]",> 1000 nM
11,"OC1CCC(F)(CCC2c3c(F)ccc(F)c3-c3cncn32)CC1 (single isomer, unassigned) [Compound 38b, 4-(2-(6,9-difluoro-5H-imidazo[5,1-a]isoindol-5-yl)ethyl)-4-fluorocyclohexanol]",100 to 1000 nM
12,"COc1ccc2c(n1)C(CC(N)C1CCCCC1)n1cncc1-2 (single isomer, unassigned) [Compound 118b, 1-cyclohexyl-2-[10-methoxy-4,6,9-triazatricyclo[6.4.0.0^[2,6]]dodeca-1(8),2,4,9,11-pentaen-7-yl]ethan-1-amine]",100 to 1000 nM
13,"NC1CCC(F)(CCC2c3ccccc3-c3cncn32)CC1 (mixture of isomers) [Compound 104b, 4-fluoro-4-(2-[5H-imidazo[4,3-a]isoindol-5-yl]ethyl)cyclohexan-1-amine]",100 to 1000 nM
14,"FC1(CCC2c3ccccc3-c3cncn32)CCCCC1 (single isomer, unassigned) [Compound 1a, 5-(2-(1-fluorocyclohexyl)ethyl)-5H-imidazo[5,1-a]isoindole]",> 1000 nM

# Further lines, results first:
row,IC50,SMILES
1,> 1000 nM,"OC(CC1c2nc(OC3CC3)ccc2-c2cncn21)C1CCCCC1 (single isomer, unassigned) [Compound 68c, 1-cyclohexyl-2-[10-cyclopropoxy-4,6,9-triazatricyclo[6.4.0.0^[2,6]]dodeca-1(8),2,4,9,11-pentaen-7-yl]ethan-1-ol]"
2,> 1000 nM,"OC(CC1c2nc(Cl)ccc2-c2cncn21)C1CCCCC1 (single isomer, unassigned) [Compound 55c, 2-[10-chloro-4,6,9-triazatricyclo[6.4.0.0^[2,6]]dodeca-1(8),2,4,9,11-pentaen-7-yl]-1-cyclohexylethan-1-ol]"
3,100 to 1000 nM,"OC1CCC(F)(CCC2c3c(F)cccc3-c3cncn32)CC1 (single isomer, unassigned) [Compound 16b, 4-fluoro-4-(2-(6-fluoro-5H-imidazo[5,1-a]isoindol-5-yl)ethyl)cyclohexanol]"
4,< 100 nM,"OCC1CCC(F)(CCC2c3c(F)cccc3-c3cncn32)CC1 (single isomer, unassigned) [Compound 84d, [4-fluoro-4-[2-[6-fluoro-5H-imidazo[4,3-a]isoindol-5-yl]ethyl]cyclohexyl]methanol]"
5,100 to 1000 nM,"Oc1cccc2c1-c1cncn1C2CCC1(F)CCC(O)CC1 (centres unmarked) [Compound 44a, 5-(2-(1-fluoro-4-hydroxycyclohexyl)ethyl)-5H-imidazo[5,1-a]isoindol-9-ol]"
6,< 100 nM,"OC1CCC(C(F)(F)CC2c3c(F)cccc3-c3cncn32)CC1 (centres unmarked) [Compound 75a, 4-(1,1-difluoro-2-[6-fluoro-5H-imidazo[4,3-a]isoindol-5-yl]ethyl)cyclohexan-1-ol]"
7,< 100 nM,"OCC1CCC(F)(CCC2c3c(F)cccc3-c3cncn32)CC1 (single isomer, unassigned) [Compound 84c, [4-fluoro-4-[2-[6-fluoro-5H-imidazo[4,3-a]isoindol-5-yl]ethyl]cyclohexyl]methanol]"
8,100 to 1000 nM,"COc1ccc2c(n1)C(CC(N)C1CCC(C)(C)CC1)n1cncc1-2 (single isomer, unassigned) [Compound 119c, 1-(4,4-dimethylcyclohexyl)-2-[10-methoxy-4,6,9-triazatricyclo[6.4.0.0^[2,6]]dodeca-1(8),2,4,9,11-pentaen-7-yl]ethan-1-amine]"
9,> 1000 nM,"Oc1cccc2c1-c1cncn1C2CCC1(F)CCCCC1 (single isomer, unassigned) [Compound 43a, 5-(2-(1-fluorocyclohexyl)ethyl)-5H-imidazo[5,1-a]isoindol-9-ol]"
10,< 100 nM,"OC1CCC(F)(CCC2c3cccc(F)c3-c3cncn32)CC1 (single isomer, unassigned) [Compound 35c, 4-fluoro-4-(2-(9-fluoro-5H-imidazo[5,1-a]isoindol-5-yl)ethyl)cyclohexanol]"
11,> 1000 nM,"NC(=O)CC1CCC(F)(CCC2c3c(Cl)cccc3-c3cncn32)CC1 (single isomer, unassigned) [Compound 113b, 2-[4-[2-[6-chloro-5H-imidazo[4,3-a]isoindol-5-yl]ethyl]-4-fluorocyclohexyl]acetamide]"
12,100 to 1000 nM,"FC(CC1c2ncccc2-c2cncn21)C1CCCCC1 (single isomer, unassigned) [Compound 97c, 7-[2-cyclohexyl-2-fluoroethyl]-4,6,9-triazatricyclo[6.4.0.0^[2,6]]dodeca-1(8),2,4,9,11-pentaene]"
13,> 1000 nM,"CN(C)C(=O)C1CCC(F)(CCC2c3c(Cl)cccc3-c3cncn32)CC1 (single isomer, unassigned) [Compound 114c, 4-[2-[6-chloro-5H-imidazo[4,3-a]isoindol-5-yl]ethyl]-4-fluoro-N,N-dimethylcyclohexane-1-carboxamide]"
14,> 1000 nM,"NS(=O)(=O)C1CCC(F)(CCC2c3ccccc3-c3cncn32)CC1 (single isomer, unassigned) [Compound 121c, 4-fluoro-4-[2-[5H-imidazo[4,3-a]isoindol-5-yl]ethyl]cyclohexane-1-sulfonamide]"
15,> 1000 nM,"OC(CC1c2nc(OC3CC3)ccc2-c2cncn21)C1CCC(F)(F)CC1 (single isomer, unassigned) [Compound 69b, 2-[10-cyclopropoxy-4,6,9-triazatricyclo[6.4.0.0^[2,6]]dodeca-1(8),2,4,9,11-pentaen-7-yl]-1-(4,4-difluorocyclohexyl)ethan-1-ol]"
16,> 1000 nM,"NC(=O)C1CCC(C(O)CC2c3ncccc3-c3cncn32)CC1 (centres unmarked) [Compound 63a, 4-[1-hydroxy-2-[4,6,9-triazatricyclo[6.4.0.0^[2,6]]dodeca-1(8),2,4,9,11-pentaen-7-yl]ethyl]cyclohexane-1-carboxamide]"
17,> 1000 nM,"OC(CC1c2ncccc2-c2cncn21)C1(F)CCC(F)(F)CC1 (single isomer, unassigned) [Compound 87a, 2-[4,6,9-triazatricyclo[6.4.0.0^[2,6]]dodeca-1(8),2,4,9,11-pentaen-7-yl]-1-(1,4,4-trifluorocyclohexyl)ethan-1-ol]"
18,> 1000 nM,"COc1ccc2c(n1)C(CC(O)C1CCC3(CC1)CC3)n1cncc1-2 (single isomer, unassigned) [Compound 53c, 2-[10-methoxy-4,6,9-triazatricyclo[6.4.0.0^[2,6]]dodeca-1(8),2,4,9,11-pentaen-7-yl]-1-[spiro[2.5]octan-6-yl]ethan-1-ol]"
